Legend:
Assay in all cases: relative viability (nuclei count vs DMSO), 5 days (fraction); higher = more cells survive
Motesanib + Tozasertib = compound: CC1(C)CNc2cc(NC(=O)c3cccnc3NCc3ccncc3)ccc21 [Motesanib] + Cc1cc(Nc2cc(N3CCN(C)CC3)nc(Sc3ccc(NC(=O)C4CC4)cc3)n2)n[nH]1 [Tozasertib] (partner 0.1 µM)
Procedure, shortened: (§1)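 Dosing by pin tool came one day after lung cancer cell lines were seeded in 1536-well plates, using either one drug or a fixed anchor-drug dose plus five library-drug doses (not always all listed) in √10 steps. After 5 days, nuclei were counted on 4× images. Relative viability is treated-well nuclei count divided by vehicle-well nuclei count, and values are medians of duplicate plates.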

[1] = compound: C[C@@]1(C(=O)Nc2ccc(F)nc2)CCCN1c1nc(Nc2cc(C3CC3)n[nH]2)c2cccn2n1 + CC1(C)CCC(c2ccc(Cl)cc2)=C(CN2CCN(c3ccc(C(=O)NS(=O)(=O)c4ccc(N[C@H](CCN5CCOCC5)CSc5ccccc5)c(S(=O)(=O)C(F)(F)F)c4)cc3)CC2)C1 [Navitoclax] (partner 0.5 µM)
Procedure, shortened: as §1

[2] = compound: C[C@@]1(C(=O)Nc2ccc(F)nc2)CCCN1c1nc(Nc2cc(C3CC3)n[nH]2)c2cccn2n1 + C[C@@H](Oc1cc(-c2cnn(C3CCNCC3)c2)cnc1N)c1c(Cl)ccc(F)c1Cl [Crizotinib] (partner 1 µM)
Procedure, shortened: as §1

[3] = compound: C[C@@]1(C(=O)Nc2ccc(F)nc2)CCCN1c1nc(Nc2cc(C3CC3)n[nH]2)c2cccn2n1 + Nc1nc2[nH]cc(CCc3ccc(C(=O)N[C@@H](CCC(=O)O)C(=O)O)cc3)c2c(=O)[nH]1 [Pemetrexed] (partner 0.2 µM)
Procedure, shortened: as §1

| Cell Line | relative viability (Motesanib + Tozasertib; first compound 0.01 µM) | relative viability (Motesanib + Tozasertib; first compound 0.03162 µM) | relative viability (Motesanib + Tozasertib; first compound 0.1 µM) | relative viability (Motesanib + Tozasertib; first compound 0.3162 µM) | relative viability (Motesanib + Tozasertib; first compound 1 µM) | relative viability ([1]; first compound 0.04 µM) | relative viability ([1]; first compound 0.1265 µM) | relative viability ([1]; first compound 0.4 µM) | relative viability ([1]; first compound 1.265 µM) | relative viability ([2]; first compound 0.04 µM) | relative viability ([2]; first compound 0.1265 µM) | relative viability ([2]; first compound 0.4 µM) | relative viability ([2]; first compound 1.265 µM) | relative viability ([3]; first compound 0.04 µM) | relative viability ([3]; first compound 0.1265 µM) | relative viability ([3]; first compound 0.4 µM) | relative viability ([3]; first compound 1.265 µM) |
| --- | --- | --- | --- | --- | --- | --- | --- | --- | --- | --- | --- | --- | --- | --- | --- | --- | --- |
| HCC-44 | 0.944 | 0.721 | 0.941 | 0.998 | 0.974 | 0.804 | 0.884 | 0.68 | 0.903 | 0.732 | 0.696 | 0.513 | 0.597 | 0.688 | 0.6 | 0.627 | 0.618 |
| HCC-827 | 0.405 | 0.425 | 0.464 | 0.48 | 0.431 | 1.02 | 1 | 1.01 | 1 | 0.897 | 0.899 | 0.901 | 0.9 | 0.264 | 0.284 | 0.244 | 0.277 |
| NCI-H1623 | 0.414 | 0.426 | 0.457 | 0.425 | 0.475 | – | – | – | – | – | – | – | – | – | – | – | – |
| NCI-H2347 | 0.466 | 0.445 | 0.548 | 0.524 | 0.443 | 0.777 | 0.544 | 0.661 | 0.846 | 0.706 | 0.75 | 0.629 | 0.569 | 0.437 | 0.415 | 0.436 | 0.416 |
| PC-14 | 0.563 | 0.657 | 0.518 | 0.618 | 0.617 | 0.99 | 0.69 | 0.959 | 0.941 | 0.901 | 0.806 | 0.758 | 0.763 | 0.154 | 0.155 | 0.134 | 0.121 |
| NCI-H1651 | 0.67 | 0.655 | 0.754 | 0.732 | 0.797 | 0.963 | 1.12 | 0.861 | 1.16 | 0.762 | 0.896 | 0.775 | 0.846 | 0.62 | 0.508 | 0.517 | 0.447 |
| HARA | 0.117 | 0.0896 | 0.097 | 0.133 | 0.0863 | 1.16 | 1.18 | 1.17 | 1.16 | 1.02 | 0.995 | 1.21 | 1.1 | 0.222 | 0.241 | 0.227 | 0.228 |
| NCI-H1650 | 0.467 | 0.381 | 0.438 | 0.491 | 0.439 | 0.955 | 1.14 | 0.955 | 1.08 | 0.966 | 0.813 | 0.9 | 0.366 | 0.38 | 0.29 | 0.334 | 0.319 |
| NCI-H1395 | 0.777 | 0.779 | 0.816 | 0.757 | 0.773 | 1.33 | 0.983 | 1.03 | 1.24 | – | – | – | – | 0.89 | 0.411 | 0.879 | 0.868 |
| LU99A | 0.262 | 0.234 | 0.263 | 0.273 | 0.263 | 0.652 | 0.71 | 0.491 | 0.574 | 0.391 | 0.415 | 0.39 | 0.233 | 0.187 | 0.165 | 0.183 | 0.165 |

From the supplement of paper PMC10307832
